# Reference: the supplement of paper PMC10331698
# ± gives the standard deviation of the averaged measurements.
# Columns and labels:
# Test in all cases: level (log10 ratio to DMSO vehicle control); higher = higher biomarker level / cell amount than vehicle control
# Details in all cases: in DMSO
# [1] = compound: C=C(C)C(=O)OCC(F)(F)C(F)(F)C(F)(F)C(F)(F)C(F)(F)C(F)(F)C(F)(F)F
# Description: (§1)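 BioMAP Diversity Plus panel of 12 human primary cell co-culture systems (3C, 4H, LPS, SAg, BT, BF4T, BE3C, CASM3C, HDF3CGF, KF3CT, MyoF, Mphg). Compounds were added 1 h before stimulation and left for 24 h (MyoF 48 h; BT 72 h for soluble read-outs or 6 d for IgG). Biomarkers were read by ELISA, cytotoxicity by SRB, PBMC viability and proliferation by Alamar Blue. Each well value was divided by the mean of 8 DMSO control wells on the same plate and log10 transformed; duplicate blinded samples were tested at 4 concentrations.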
# [2] = compound: O=C(O)C(F)(F)C(F)(F)C(F)(F)C(F)(F)C(F)(F)C(F)(F)C(F)(F)C(F)(F)C(F)(F)C(F)(F)C(F)(F)C(F)(F)C(F)(F)F [Perfluorotetradecanoic acid]
# Description: as §1
# [3] = compound: O=C(O)CCC(F)(F)C(F)(F)C(F)(F)F [3:3 Fluorotelomer carboxylic acid]
# Description: as §1
# Azathioprine = compound: Cn1cnc([N+](=O)[O-])c1Sc1ncnc2[nH]cnc12 [Azathioprine]
# Description: as §1
# [4] = compound: C=CC(=O)OCCC(F)(F)C(F)(F)C(F)(F)C(F)(F)F [2-(Perfluorobutyl)ethyl acrylate]
# Description: as §1
# [5] = compound: O=C(O)C(F)(F)C(F)(F)C(F)(F)C(F)(F)C(F)(F)C(F)(F)C(F)(F)C(F)(F)C(F)(F)C(F)(F)C(F)(F)C(F)(F)F [Perfluorotridecanoic acid]
# Description: as §1
Test System,level (log10) ([1]; 6700 nM),level (log10) ([1]; 20000 nM),level (log10) ([2]; 6700 nM),level (log10) ([2]; 20000 nM),level (log10) ([3]; 6700 nM),level (log10) ([3]; 20000 nM),level (log10) ([3]; 60000 nM),level (log10) (Azathioprine; 1400 nM),level (log10) (Azathioprine; 4200 nM),level (log10) (Azathioprine; 13000 nM),level (log10) (Azathioprine; 38000 nM),level (log10) ([4]; 6700 nM),level (log10) ([4]; 20000 nM),level (log10) ([4]; 60000 nM),level (log10) ([5]; 1500 nM),level (log10) ([5]; 4400 nM),level (log10) ([5]; 13000 nM),level (log10) ([5]; 40000 nM)
HDF3CGF:CCL2/MCP-1,-0.0205 ± 0.03,-0.007 ± 0.0042,0.0235 ± 0.016,0.0285 ± 0.029,0.004 ± 0.013,0.0005 ± 0.0035,0.015 ± 0.041,-0.0095 ± 0.018,-0.005 ± 0.0057,-0.0255 ± 0.0035,-0.043 ± 0.024,-0.032 ± 0.0085,-0.059 ± 0.025,-0.117 ± 0.054,0.0155 ± 0.043,-0.039 ± 0.082,-0.018 ± 0.018,-0.0145 ± 0.015
HDF3CGF:CD54/ICAM-1,-0.008 ± 0.0085,-0.01 ± 0.014,-0.0015 ± 0.029,-0.023 ± 0.033,-0.0025 ± 0.0078,-0.0135 ± 0.015,-0.017 ± 0.0028,-0.0065 ± 0.011,0.0045 ± 0.0078,0.0015 ± 0.019,-0.0195 ± 0.012,-0.028 ± 0.025,-0.035 ± 0.025,-0.131 ± 0.059,-0.016 ± 0.0071,-0.0075 ± 0.015,-0.0135 ± 0.064,-0.0275 ± 0.12
HDF3CGF:CD106/VCAM-1,-0.01 ± 0.037,-0.017 ± 0.11,-0.021 ± 0.0099,-0.122 ± 0.012,-0.0055 ± 0.00071,0.02 ± 0.014,-0.009 ± 0.0085,-0.0485 ± 0.1,-0.021 ± 0.03,-0.08 ± 0.042,-0.243 ± 0.0057,-0.068 ± 0.0028,-0.203 ± 0.049,-0.317 ± 0.041,-0.0785 ± 0.0021,-0.207 ± 0.14,-0.152 ± 0.026,-0.291 ± 0.04
HDF3CGF:CXCL8/IL-8,-0.0015 ± 0.016,0.0045 ± 0.00071,-0.0045 ± 0.012,0.008 ± 0.0085,-0.006 ± 0.016,-0.002 ± 0.0099,-0.004 ± 0.017,0.006 ± 0.014,-0.0155 ± 0.021,-0.009 ± 0.0028,0.0045 ± 0.029,-0.003 ± 0.011,0 ± 0.0028,-0.007 ± 0.021,0.007,0.004 ± 0.0014,0.012 ± 0.0014,0.0165 ± 0.015
HDF3CGF:CXCL9/MIG,0.02 ± 0.024,0.0165 ± 0.015,0.0075 ± 0.025,-0.001 ± 0.0042,-0.0115 ± 0.018,-0.005 ± 0.0057,0.0295 ± 0.025,-0.002 ± 0.018,-0.0215 ± 0.013,-0.026 ± 0.02,-0.0645 ± 0.005,-0.0335 ± 0.019,-0.176 ± 0.064,-0.498 ± 0.071,-0.04 ± 0.03,-0.136 ± 0.12,-0.119 ± 0.043,-0.138 ± 0.073
HDF3CGF:CXCL10/IP-10,-0.012 ± 0.0042,-0.002 ± 0.025,0.022 ± 0.0099,-0.0585 ± 0.1,-0.0005 ± 0.013,0.003 ± 0.0042,-0.011 ± 0.011,-0.0225 ± 0.022,-0.037 ± 0.044,-0.0825 ± 0.012,-0.152 ± 0.0078,-0.0135 ± 0.029,-0.0985 ± 0.013,-0.281 ± 0.032,-0.0955 ± 0.063,-0.234 ± 0.2,-0.236 ± 0.098,-0.235 ± 0.13
HDF3CGF:CXCL11/I-TAC,0.016 ± 0.0071,-0.009 ± 0.023,0.0165 ± 0.015,-0.0705 ± 0.08,0.0025 ± 0.0092,-0.0065 ± 0.0078,0.012 ± 0.035,-0.0495 ± 0.018,-0.042 ± 0.055,-0.078 ± 0.014,-0.21 ± 0.04,-0.045 ± 0.062,-0.124 ± 0.023,-0.317 ± 0.087,-0.072 ± 0.014,-0.074 ± 0.055,-0.0805 ± 0.077,-0.18 ± 0.034
HDF3CGF:Collagen I,-0.0035 ± 0.0078,0.0375 ± 0.005,-0.0105 ± 0.076,0.016 ± 0.078,-0.029 ± 0.0042,-0.006 ± 0.035,0.0325 ± 0.07,-0.0185 ± 0.005,-0.059 ± 0.044,-0.0475 ± 0.028,-0.034 ± 0.064,-0.065 ± 0.02,-0.0225 ± 0.042,-0.0295 ± 0.054,0.0245 ± 0.1,-0.017 ± 0.0071,-0.0245 ± 0.044,0.0105 ± 0.013
HDF3CGF:Collagen III,-0.004 ± 0.0042,-0.0005 ± 0.0078,-0.114 ± 0.057,-0.094 ± 0.13,-0.012 ± 0.017,-0.007 ± 0.025,0.0245 ± 0.054,-0.0145 ± 0.074,-0.114 ± 0.088,-0.101 ± 0.0064,-0.22 ± 0.096,-0.005 ± 0.0014,-0.0605 ± 0.0021,-0.127 ± 0.03,-0.057 ± 0.083,-0.27 ± 0.037,-0.261 ± 0.034,-0.224 ± 0.078
HDF3CGF:EGFR,0.0245 ± 0.005,-0.007 ± 0.048,-0.0725 ± 0.036,0.029 ± 0.081,-0.023 ± 0.018,-0.012 ± 0.024,-0.003 ± 0.045,-0.006 ± 0.0014,-0.0565 ± 0.076,-0.05 ± 0.061,-0.011 ± 0.1,-0.002 ± 0.016,-0.0165 ± 0.005,-0.0055 ± 0.021,0.0025 ± 0.077,-0.052 ± 0.025,-0.0595 ± 0.03,-0.0175 ± 0.046
HDF3CGF:M-CSF,0.009 ± 0.033,0.0245 ± 0.03,0.041 ± 0.038,0 ± 0.067,0.002 ± 0.0099,-0.004 ± 0.0042,0.001 ± 0.013,-0.0255 ± 0.039,-0.018 ± 0.042,-0.0595 ± 0.011,-0.184 ± 0.025,-0.0445 ± 0.0092,-0.154 ± 0.054,-0.259 ± 0.12,0.016,0.0145 ± 0.049,-0.029 ± 0.078,-0.0295 ± 0.13
HDF3CGF:MMP-1,-0.003 ± 0.02,-0.0045 ± 0.026,-0.044 ± 0.016,-0.019 ± 0.0071,0.0045 ± 0.037,0.009 ± 0.017,0.0045 ± 0.015,0.0005 ± 0.0021,0.02 ± 0.021,0.0275 ± 0.022,0.0415 ± 0.0021,0.0135 ± 0.0064,0.0905 ± 0.022,0.133 ± 0.022,-0.0005 ± 0.035,-0.061 ± 0.042,-0.063 ± 0.044,-0.068 ± 0.069
HDF3CGF:PAI-I,0.011 ± 0.0099,0.0095 ± 0.019,0.0475 ± 0.023,0.0405 ± 0.021,-0.006 ± 0.031,-0.0035 ± 0.023,0.0085 ± 0.005,0.022 ± 0.054,-0.015 ± 0.037,-0.0545 ± 0.04,-0.198 ± 0.021,-0.0135 ± 0.0035,-0.0185 ± 0.023,-0.016 ± 0.024,0.063,0.0515 ± 0.023,0.0505 ± 0.0064,-0.022 ± 0.027
HDF3CGF:Proliferation 72hr,0.019 ± 0.018,0.001 ± 0.038,0.0655 ± 0.046,-0.063 ± 0.054,-0.0095 ± 0.015,0.0385 ± 0.0092,0.021 ± 0.027,-0.0455 ± 0.079,-0.061 ± 0.035,-0.057 ± 0.0057,-0.162 ± 0.027,-0.0325 ± 0.0092,-0.124 ± 0.054,-0.197 ± 0.041,0.0615 ± 0.07,-0.603 ± 0.43,-0.288 ± 0.069,-0.233 ± 0.091
HDF3CGF:SRB,0.0255 ± 0.11,0.044 ± 0.12,0.027 ± 0.014,0.0205 ± 0.069,0.029 ± 0.061,0.0105 ± 0.0078,0.011 ± 0.05,-0.0505 ± 0.04,-0.053 ± 0.02,-0.018 ± 0.025,-0.0325 ± 0.079,-0.0125 ± 0.057,-0.092 ± 0.073,-0.0805 ± 0.06,-0.0195 ± 0.035,-0.007 ± 0.021,0.063 ± 0.054,0.067 ± 0.075
